# Reference: patent US10772900B2, “Drug target for treating veterinary infections and methods of using same” (THE TRUSTEES OF THE UNIVERSITY OF PENNSYLVANIA, priority 2016, dated 2020)
# Tests used:
# [1] = system: Plasmodium falciparum; conditions: clinical trials, malaria, administered alone or in combination with clindamycin; cited from earlier work
# [2] = system: S. schleiferi; assay: MIC and MBC assays in Mueller-Hinton broth; assay type: cell-based, Staphylococcus schleiferi
# Procedure: (§1) The minimal inhibitory concentration (MIC) of various antimicrobials (amoxicillin-clavulanic acid, ampicillin, cefazolin, chloramphenicol, ciprofloxacin, clindamycin, erythromycin, gentamicin, imipenem, oxacillin, penicillin, rifampin, tetracycline, trimethoprim-sulfamethoxazole, and vancomycin) was determined via broth microdilution on a MicroScan Walkaway 40 PC20 Gram-positive combo-panel (Dade Behring, Sacramento, Calif.). Enrofloxacin and marbofloxacin susceptibilities were determined via Kirby-Bauer disk diffusion as these drugs were not available on the pre-configured commercial test panel. Fosmidomycin MIC assays were performed following clinical laboratory standards. Fosmidomycin (Sigma, St. Louis, USA) was filter-sterilized with a […] filter (Pall Corporation, Ann Arbor, USA) and was serially 2-fold diluted in a concentration range of 40.96-0.25 mg/mL. Tubes containing 1 mL Mueller-Hinton broth (Sigma) were inoculated with 5×10^5 colony forming units/mL. 50 μL of the appropriate fosmidomycin concentration was added to each tube containing the starter culture, and was incubated at 37° C. overnight with shaking at 250 rpm for 18-20 hours. The MICS were determined by visual inspection. The minimum bactericidal concentration (MBC) was determined by plating 200 μL of the drug-treated cultures onto Mueller-Hinton agar plates (Remel, Lenexa, USA). The lowest concentration at which there was no growth after a 24-hour incubation at 37° C. was determined to be the MBC. For the plate-based fosmidomycin growth assay, overnight cultures of Staphylococcus species grown in Mueller-Hinton broth were sub-cultured to Mueller-Hinton agar plates containing 50 μg/mL fosmidomycin and were incubated for 24 hours at 37° C. All assays were performed and the results were interpreted using Clinical Laboratory Standards Institute guidelines (CLSI. (2013) Approved Standard-Fourth Edition. Clinical and Laboratory Standards Institute, Wayne, Pa., USA).
# [3] = system: S. sciuri; assay: MIC and MBC assays in Mueller-Hinton broth; assay type: cell-based, Staphylococcus sciuri
# Procedure: as §1, with “50 μL of the appropriate fosmidomycin concentration was added to each tube containing the starter culture, and was incubated at 37° C. overnight with shaking at 250 rpm for 18-20 hours.” left out, “For the plate-based fosmidomycin growth assay, overnight cultures of Staphylococcus species grown in Mueller-Hinton broth were sub-cultured to Mueller-Hinton agar plates containing 50 μg/mL fosmidomycin and were incubated for 24 hours at 37° C. All assays were performed and the results were interpreted using Clinical Laboratory Standards Institute guidelines (CLSI. (2013) Approved Standard-Fourth Edition. Clinical and Laboratory Standards Institute, Wayne, Pa., USA).” left out
# [4] = system: S. lugdunensis; assay: MIC and MBC assays in Mueller-Hinton broth; assay type: cell-based; conditions: Staphylococcus lugdunensis, 37° C., 18-20 hours, read-out: MIC (concentration at which bacteria still grew normally)
# Procedure: as §1
# [5] = system: S. aureus; assay: MIC and MBC assays in Mueller-Hinton broth; assay type: cell-based; conditions: Staphylococcus aureus, 37° C., 18-20 hours, read-out: MIC (concentration at which bacteria still grew normally)
# Procedure: as §1
# [6] = system: S. epidermidis; assay: MIC and MBC assays in Mueller-Hinton broth; assay type: cell-based; conditions: Staphylococcus epidermidis, 37° C., 18-20 hours, read-out: MIC (concentration at which bacteria still grew normally)
# Procedure: as §1
# [7] = system: Plasmodium falciparum; conditions: cited from earlier work
# [8] = system: S. aureus; assay: plate-based fosmidomycin growth assay; assay type: cell-based, Staphylococcus aureus; conditions: 50 μg/mL fosmidomycin, Mueller-Hinton agar, 24 hours at 37° C.
# Procedure: as §1, with “50 μL of the appropriate fosmidomycin concentration was added to each tube containing the starter culture, and was incubated at 37° C. overnight with shaking at 250 rpm for 18-20 hours.” left out, “For the plate-based fosmidomycin growth assay, overnight cultures of Staphylococcus species grown in Mueller-Hinton broth were sub-cultured to Mueller-Hinton agar plates containing 50 μg/mL fosmidomycin and were incubated for 24 hours at 37° C. All assays were performed and the results were interpreted using Clinical Laboratory Standards Institute guidelines (CLSI. (2013) Approved Standard-Fourth Edition. Clinical and Laboratory Standards Institute, Wayne, Pa., USA).” left out
# [9] = system: S. pseudintermedius; assay: plate-based fosmidomycin growth assay; assay type: cell-based, Staphylococcus pseudintermedius; conditions: 50 μg/mL fosmidomycin, Mueller-Hinton agar, 24 hours at 37° C.
# Procedure: as §1, with “50 μL of the appropriate fosmidomycin concentration was added to each tube containing the starter culture, and was incubated at 37° C. overnight with shaking at 250 rpm for 18-20 hours.” left out, “For the plate-based fosmidomycin growth assay, overnight cultures of Staphylococcus species grown in Mueller-Hinton broth were sub-cultured to Mueller-Hinton agar plates containing 50 μg/mL fosmidomycin and were incubated for 24 hours at 37° C. All assays were performed and the results were interpreted using Clinical Laboratory Standards Institute guidelines (CLSI. (2013) Approved Standard-Fourth Edition. Clinical and Laboratory Standards Institute, Wayne, Pa., USA).” left out
# [10] = system: S. epidermidis; assay: plate-based fosmidomycin growth assay; assay type: cell-based, Staphylococcus epidermidis; conditions: 50 μg/mL fosmidomycin, Mueller-Hinton agar, 24 hours at 37° C.
# Procedure: as §1, with “50 μL of the appropriate fosmidomycin concentration was added to each tube containing the starter culture, and was incubated at 37° C. overnight with shaking at 250 rpm for 18-20 hours.” left out, “For the plate-based fosmidomycin growth assay, overnight cultures of Staphylococcus species grown in Mueller-Hinton broth were sub-cultured to Mueller-Hinton agar plates containing 50 μg/mL fosmidomycin and were incubated for 24 hours at 37° C. All assays were performed and the results were interpreted using Clinical Laboratory Standards Institute guidelines (CLSI. (2013) Approved Standard-Fourth Edition. Clinical and Laboratory Standards Institute, Wayne, Pa., USA).” left out
# [11] = fosmidomycin safety trial for otic application in dogs; assay type: in vivo, dog; conditions: 100 micrograms in sterile water twice daily to both ears, 10 days
# Procedure: FIGS. 7A-7C are a series of plots illustrating the outcome of a fosmidomycin safety trial for otic application in dogs. Five colony dogs were used in the safety study. Four of the five dogs were homozygous for ectodermal dysplasia, while the remaining dog was a carrier (heterozygote). Each dog was treated with 100 micrograms of fosmidomycin resuspended in water and applied twice daily to both ears. Pain and inflammation were assessed using the Short Form of the Glasgow Composite Pain Scale (FIG. 7A) and the Otitis Index Score (FIG. 7B and FIG. 7C), respectively. Clinical scoring was carried out prior to fosmidomycin treatment (“pre”), each day of drug application for 10 days, and one day after the cessation of treatment (“post”). Bars represent the mean and standard deviation of scores for the group of 5 dogs at each timepoint. Dotted lines represent field-standard thresholds for clinically significant pain or inflammation.
# Five research dogs were used in a safety study testing otic application of fosmidomycin. Four of the five dogs were homozygous for ectodermal dysplasia, while the remaining dog was a carrier (heterozygote). […] Pain and inflammation were assessed using the Short Form of the Glasgow Composite Pain Scale (FIG. 7A) and the Otitis Index Score (FIG. 7B and FIG. 7C), respectively. […]
# [12] = system: S. pseudintermedius; assay: MIC and MBC assays in Mueller-Hinton broth; assay type: cell-based, Staphylococcus pseudintermedius
# Procedure: as §1, with “50 μL of the appropriate fosmidomycin concentration was added to each tube containing the starter culture, and was incubated at 37° C. overnight with shaking at 250 rpm for 18-20 hours.” left out, “For the plate-based fosmidomycin growth assay, overnight cultures of Staphylococcus species grown in Mueller-Hinton broth were sub-cultured to Mueller-Hinton agar plates containing 50 μg/mL fosmidomycin and were incubated for 24 hours at 37° C. All assays were performed and the results were interpreted using Clinical Laboratory Standards Institute guidelines (CLSI. (2013) Approved Standard-Fourth Edition. Clinical and Laboratory Standards Institute, Wayne, Pa., USA).” left out
# [13] = system: S. schleiferi; assay: plate-based fosmidomycin growth assay; assay type: cell-based, Staphylococcus schleiferi; conditions: 50 μg/mL fosmidomycin, Mueller-Hinton agar, 24 hours at 37° C.
# Procedure: as §1, with “50 μL of the appropriate fosmidomycin concentration was added to each tube containing the starter culture, and was incubated at 37° C. overnight with shaking at 250 rpm for 18-20 hours.” left out, “For the plate-based fosmidomycin growth assay, overnight cultures of Staphylococcus species grown in Mueller-Hinton broth were sub-cultured to Mueller-Hinton agar plates containing 50 μg/mL fosmidomycin and were incubated for 24 hours at 37° C. All assays were performed and the results were interpreted using Clinical Laboratory Standards Institute guidelines (CLSI. (2013) Approved Standard-Fourth Edition. Clinical and Laboratory Standards Institute, Wayne, Pa., USA).” left out
# [14] = plated on Mueller-Hinton agar, 24-hour incubation at 37° C.
compound,measurement,setting,value
O=CN(O)CCCP(=O)(O)O [fosmidomycin],cure rates,[1],85-100%
same,inhibition of multi-drug resistant strain,"[2]; S. schleiferi strain 1360-13, multi-drug resistant phenotype",inhibited
same,MIC,"[2]; Staphylococcus schleiferi, Mueller-Hinton broth, 37° C., 18-20 hours, read-out: MIC (inhibited by concentrations as low as)",≥ 0.5 µg/mL
same,MBC (killed by concentrations of),[2]; [14],4 to 16 µg/mL
same,MIC,"[3]; Mammaliicoccus sciuri, Mueller-Hinton broth, 37° C., 18-20 hours, read-out: MIC (inhibited by concentrations as low as)",≥ 0.5 µg/mL
same,MBC (killed by concentrations of),[3]; [14],4 to 16 µg/mL
same,MIC,[4],> 256 µg/mL
same,MIC,[5],> 256 µg/mL
same,MIC,[6],> 256 µg/mL
same,killing the parasite in culture,[7],effective
same,growth on agar plates containing fosmidomycin,[8],grew
same,growth on agar plates containing fosmidomycin,[9],completely restricted growth
same,growth on agar plates containing fosmidomycin,[10],grew
same,inflammation score (Otitis Index Score),[11],clinically insignificant
same,pain score (Short Form of the Glasgow Composite Pain Scale),[11],clinically insignificant
same,MIC,"[12]; Staphylococcus pseudintermedius, Mueller-Hinton broth, 37° C., 18-20 hours, read-out: MIC (inhibited by concentrations as low as)",≥ 0.5 µg/mL
same,MBC (killed by concentrations of),[12]; [14],4 to 16 µg/mL
same,growth on agar plates containing fosmidomycin,[13],completely restricted growth
